Experimental data from ChEMBL document CHEMBL3885861, “Open TG-GATES”.

Species on record: Rattus norvegicus
Assay: Open TG-GATES - Regimen: Single
Type: toxicity, organism-based, Sprague-Dawley
Parameters: regimen Single, gender Male, age 6 weeks
Conditions: in vivo, iv, route intravenous injection; for Bas / Eos / Hb / Ht / Lym / MCH / MCHC / MCV / Mono / Neu / Plat / RBC / Ret: tissue Blood; for KIDNEY_L / KIDNEY_R / KIDNEY_TOTAL: tissue Kidney; for ALT / AST / CRE / DBIL / GLC / K / LDH / Na / PL / RALB / TBIL / TC / TP / gamma-GTP: tissue Plasma
[1] = 0 mg/kg, 3 h, dose level Control
[2] = 0 mg/kg, 6 h, dose level Control
[3] = 0 mg/kg, 9 h, dose level Control
[4] = 0 mg/kg, 24 h, dose level Control

CC(C)C[C@H](NC(=O)[C@H](Cc1ccccc1)NC(=O)c1cnccn1)B(O)O [BORTEZOMIB]
TERMINAL_BW [1]: 223 g
Bas [1]: 0%
Eos [1]: 0.8%
Hb [1]: 13.9 g/dL
Ht [1]: 39.5%
Lym [1]: 81.4%
MCH [1]: 22.9 pg
MCHC [1]: 35.2%
MCV [1]: 65.1 fL
Mono [1]: 2.6%
Neu [1]: 14.8%
Plat [1]: 124.1 x10_4/uL
RBC [1]: 607 x10_4/ul
Ret [1]: 9.3%
KIDNEY_L [1]: 0.9 g
KIDNEY_R [1]: 0.9 g
KIDNEY_TOTAL [1]: 1.9 g
ALT [1]: 38.6 IU/L
AST [1]: 70.4 IU/L
CRE [1]: 0.2 mg/dL
DBIL [1]: 0 mg/dL
GLC [1]: 191.2 mg/dL
K [1]: 3.9 meq/L
LDH [1]: 175.8 IU/L
Na [1]: 142.3 meq/L
PL [1]: 138.6 mg/dL
RALB [1]: 4.1 g/dL
TBIL [1]: 0.006 mg/dL
TC [1]: 74.6 mg/dL
TP [1]: 5.6 g/dL
gamma-GTP [1]: 0.7 IU/L
TERMINAL_BW [2]: 220.7 g
Bas [2]: 0%
Eos [2]: 0.4%
Hb [2]: 13.7 g/dL
Ht [2]: 38.8%
Lym [2]: 77.6%
MCH [2]: 22.1 pg
MCHC [2]: 35.4%
MCV [2]: 62.5 fL
Mono [2]: 2.8%
Neu [2]: 18.4%
Plat [2]: 117.1 x10_4/uL
RBC [2]: 622.4 x10_4/ul
Ret [2]: 8.7%
KIDNEY_L [2]: 1 g
KIDNEY_R [2]: 1 g
KIDNEY_TOTAL [2]: 2 g
ALT [2]: 37 IU/L
AST [2]: 78.8 IU/L
CRE [2]: 0.2 mg/dL
DBIL [2]: 0 mg/dL
GLC [2]: 176.6 mg/dL
K [2]: 4.4 meq/L
LDH [2]: 219.2 IU/L
Na [2]: 141.6 meq/L
PL [2]: 141.4 mg/dL
RALB [2]: 4 g/dL
TBIL [2]: 0.014 mg/dL
TC [2]: 75.4 mg/dL
TP [2]: 5.6 g/dL
gamma-GTP [2]: 0.8 IU/L
TERMINAL_BW [3]: 222.6 g
Bas [3]: 0%
Eos [3]: 1%
Hb [3]: 14 g/dL
Ht [3]: 40.5%
Lym [3]: 71%
MCH [3]: 22.2 pg
MCHC [3]: 34.5%
MCV [3]: 64.3 fL
Mono [3]: 3.4%
Neu [3]: 24.4%
Plat [3]: 108.5 x10_4/uL
RBC [3]: 630.2 x10_4/ul
Ret [3]: 9.3%
KIDNEY_L [3]: 1 g
KIDNEY_R [3]: 1 g
KIDNEY_TOTAL [3]: 1.9 g
ALT [3]: 39.8 IU/L
AST [3]: 78 IU/L
CRE [3]: 0.2 mg/dL
DBIL [3]: 0 mg/dL
GLC [3]: 179.4 mg/dL
K [3]: 3.9 meq/L
LDH [3]: 187.2 IU/L
Na [3]: 141.5 meq/L
PL [3]: 139 mg/dL
RALB [3]: 3.9 g/dL
TBIL [3]: 0.022 mg/dL
TC [3]: 78.6 mg/dL
TP [3]: 5.5 g/dL
gamma-GTP [3]: 0.8 IU/L
TERMINAL_BW [4]: 236.7 g
Bas [4]: 0%
Eos [4]: 0.6%
Hb [4]: 13.8 g/dL
Ht [4]: 38.2%
Lym [4]: 81.2%
MCH [4]: 22.9 pg
MCHC [4]: 36.1%
MCV [4]: 63.5 fL
Mono [4]: 3%
Neu [4]: 14.6%
Plat [4]: 113.7 x10_4/uL
RBC [4]: 603 x10_4/ul
Ret [4]: 8%
KIDNEY_L [4]: 1.1 g
KIDNEY_R [4]: 1 g
KIDNEY_TOTAL [4]: 2.1 g
ALT [4]: 42 IU/L
AST [4]: 74.4 IU/L
CRE [4]: 0.2 mg/dL
DBIL [4]: 0 mg/dL
GLC [4]: 182.4 mg/dL
K [4]: 4.2 meq/L
LDH [4]: 190.4 IU/L
Na [4]: 140.8 meq/L
PL [4]: 146.4 mg/dL
RALB [4]: 4 g/dL
TBIL [4]: 0.002 mg/dL
TC [4]: 74.2 mg/dL
TP [4]: 5.7 g/dL
gamma-GTP [4]: 1 IU/L
TERMINAL_BW (1 mg/kg, 3 h, dose level High): 228.6 g
Bas (1 mg/kg, 3 h, dose level High): 0%
Eos (1 mg/kg, 3 h, dose level High): 0.6%
Hb (1 mg/kg, 3 h, dose level High): 14.6 g/dL
Ht (1 mg/kg, 3 h, dose level High): 41.1%
Lym (1 mg/kg, 3 h, dose level High): 73%
MCH (1 mg/kg, 3 h, dose level High): 22.6 pg
MCHC (1 mg/kg, 3 h, dose level High): 35.4%
MCV (1 mg/kg, 3 h, dose level High): 63.7 fL
Mono (1 mg/kg, 3 h, dose level High): 2.2%
Neu (1 mg/kg, 3 h, dose level High): 23.8%
Plat (1 mg/kg, 3 h, dose level High): 121.1 x10_4/uL
RBC (1 mg/kg, 3 h, dose level High): 645.8 x10_4/ul
Ret (1 mg/kg, 3 h, dose level High): 8.6%
KIDNEY_L (1 mg/kg, 3 h, dose level High): 0.9 g
KIDNEY_R (1 mg/kg, 3 h, dose level High): 1 g
KIDNEY_TOTAL (1 mg/kg, 3 h, dose level High): 1.9 g
ALT (1 mg/kg, 3 h, dose level High): 60 IU/L
AST (1 mg/kg, 3 h, dose level High): 123.6 IU/L
CRE (1 mg/kg, 3 h, dose level High): 0.2 mg/dL
DBIL (1 mg/kg, 3 h, dose level High): 0.008 mg/dL
GLC (1 mg/kg, 3 h, dose level High): 155 mg/dL
K (1 mg/kg, 3 h, dose level High): 4.2 meq/L
LDH (1 mg/kg, 3 h, dose level High): 295.6 IU/L
Na (1 mg/kg, 3 h, dose level High): 141.3 meq/L
PL (1 mg/kg, 3 h, dose level High): 99 mg/dL
RALB (1 mg/kg, 3 h, dose level High): 3.7 g/dL
TBIL (1 mg/kg, 3 h, dose level High): 0.012 mg/dL
TC (1 mg/kg, 3 h, dose level High): 63.6 mg/dL
TP (1 mg/kg, 3 h, dose level High): 5 g/dL
gamma-GTP (1 mg/kg, 3 h, dose level High): 0.8 IU/L
TERMINAL_BW (1 mg/kg, 6 h, dose level High): 226.8 g
Bas (1 mg/kg, 6 h, dose level High): 0%
Eos (1 mg/kg, 6 h, dose level High): 0.2%
Hb (1 mg/kg, 6 h, dose level High): 14.2 g/dL
Ht (1 mg/kg, 6 h, dose level High): 39.8%
Lym (1 mg/kg, 6 h, dose level High): 61%
MCH (1 mg/kg, 6 h, dose level High): 22.8 pg
MCHC (1 mg/kg, 6 h, dose level High): 35.7%
MCV (1 mg/kg, 6 h, dose level High): 63.8 fL
Mono (1 mg/kg, 6 h, dose level High): 2.2%
Neu (1 mg/kg, 6 h, dose level High): 35.6%
Plat (1 mg/kg, 6 h, dose level High): 113.4 x10_4/uL
RBC (1 mg/kg, 6 h, dose level High): 623.4 x10_4/ul
Ret (1 mg/kg, 6 h, dose level High): 8.3%
KIDNEY_L (1 mg/kg, 6 h, dose level High): 1 g
KIDNEY_R (1 mg/kg, 6 h, dose level High): 1 g
KIDNEY_TOTAL (1 mg/kg, 6 h, dose level High): 1.9 g
ALT (1 mg/kg, 6 h, dose level High): 116.4 IU/L
AST (1 mg/kg, 6 h, dose level High): 191.4 IU/L
CRE (1 mg/kg, 6 h, dose level High): 0.2 mg/dL
DBIL (1 mg/kg, 6 h, dose level High): 0.006 mg/dL
GLC (1 mg/kg, 6 h, dose level High): 148.2 mg/dL
K (1 mg/kg, 6 h, dose level High): 4.4 meq/L
LDH (1 mg/kg, 6 h, dose level High): 314.4 IU/L
Na (1 mg/kg, 6 h, dose level High): 141.2 meq/L
PL (1 mg/kg, 6 h, dose level High): 78.4 mg/dL
RALB (1 mg/kg, 6 h, dose level High): 3.7 g/dL
TBIL (1 mg/kg, 6 h, dose level High): 0.008 mg/dL
TC (1 mg/kg, 6 h, dose level High): 44.6 mg/dL
TP (1 mg/kg, 6 h, dose level High): 4.9 g/dL
gamma-GTP (1 mg/kg, 6 h, dose level High): 0.6 IU/L
TERMINAL_BW (1 mg/kg, 9 h, dose level High): 222.8 g
Bas (1 mg/kg, 9 h, dose level High): 0%
Eos (1 mg/kg, 9 h, dose level High): 0.8%
Hb (1 mg/kg, 9 h, dose level High): 14.3 g/dL
Ht (1 mg/kg, 9 h, dose level High): 40.6%
Lym (1 mg/kg, 9 h, dose level High): 49%
MCH (1 mg/kg, 9 h, dose level High): 23 pg
MCHC (1 mg/kg, 9 h, dose level High): 35.2%
MCV (1 mg/kg, 9 h, dose level High): 65.2 fL
Mono (1 mg/kg, 9 h, dose level High): 2%
Neu (1 mg/kg, 9 h, dose level High): 48.2%
RBC (1 mg/kg, 9 h, dose level High): 622 x10_4/ul
Ret (1 mg/kg, 9 h, dose level High): 8.2%
KIDNEY_L (1 mg/kg, 9 h, dose level High): 1 g
KIDNEY_R (1 mg/kg, 9 h, dose level High): 1 g
KIDNEY_TOTAL (1 mg/kg, 9 h, dose level High): 2 g
ALT (1 mg/kg, 9 h, dose level High): 122.2 IU/L
AST (1 mg/kg, 9 h, dose level High): 182 IU/L
CRE (1 mg/kg, 9 h, dose level High): 0.2 mg/dL
DBIL (1 mg/kg, 9 h, dose level High): 0.014 mg/dL
GLC (1 mg/kg, 9 h, dose level High): 150.4 mg/dL
K (1 mg/kg, 9 h, dose level High): 4 meq/L
LDH (1 mg/kg, 9 h, dose level High): 262 IU/L
Na (1 mg/kg, 9 h, dose level High): 140.9 meq/L
PL (1 mg/kg, 9 h, dose level High): 74 mg/dL
RALB (1 mg/kg, 9 h, dose level High): 3.6 g/dL
TBIL (1 mg/kg, 9 h, dose level High): 0.02 mg/dL
TC (1 mg/kg, 9 h, dose level High): 36.2 mg/dL
TP (1 mg/kg, 9 h, dose level High): 4.7 g/dL
gamma-GTP (1 mg/kg, 9 h, dose level High): 0.8 IU/L
TERMINAL_BW (1 mg/kg, 24 h, dose level High): 215.1 g
Bas (1 mg/kg, 24 h, dose level High): 0%
Eos (1 mg/kg, 24 h, dose level High): 0%
Hb (1 mg/kg, 24 h, dose level High): 12.6 g/dL
Ht (1 mg/kg, 24 h, dose level High): 35.2%
Lym (1 mg/kg, 24 h, dose level High): 42%
MCH (1 mg/kg, 24 h, dose level High): 23.4 pg
MCHC (1 mg/kg, 24 h, dose level High): 35.8%
MCV (1 mg/kg, 24 h, dose level High): 65.5 fL
Mono (1 mg/kg, 24 h, dose level High): 2.7%
Neu (1 mg/kg, 24 h, dose level High): 54%
Plat (1 mg/kg, 24 h, dose level High): 89 x10_4/uL
RBC (1 mg/kg, 24 h, dose level High): 538.3 x10_4/ul
Ret (1 mg/kg, 24 h, dose level High): 5.4%
KIDNEY_L (1 mg/kg, 24 h, dose level High): 1 g
KIDNEY_R (1 mg/kg, 24 h, dose level High): 1 g
KIDNEY_TOTAL (1 mg/kg, 24 h, dose level High): 2 g
ALT (1 mg/kg, 24 h, dose level High): 163 IU/L
AST (1 mg/kg, 24 h, dose level High): 368.7 IU/L
CRE (1 mg/kg, 24 h, dose level High): 0.2 mg/dL
DBIL (1 mg/kg, 24 h, dose level High): 0.5 mg/dL
GLC (1 mg/kg, 24 h, dose level High): 134.7 mg/dL
K (1 mg/kg, 24 h, dose level High): 4 meq/L
LDH (1 mg/kg, 24 h, dose level High): 922.3 IU/L
Na (1 mg/kg, 24 h, dose level High): 135.5 meq/L
PL (1 mg/kg, 24 h, dose level High): 100.3 mg/dL
RALB (1 mg/kg, 24 h, dose level High): 2.7 g/dL
TBIL (1 mg/kg, 24 h, dose level High): 0.5 mg/dL
TC (1 mg/kg, 24 h, dose level High): 41 mg/dL
TP (1 mg/kg, 24 h, dose level High): 3.9 g/dL
gamma-GTP (1 mg/kg, 24 h, dose level High): 4.3 IU/L
